In patent US20240115545A1, “PHARMACEUTICAL COMPOSITION CONTAINING B-LAPACHONE AS ACTIVE INGREDIENT FOR PREVENTION OR TREATMENT OF CHOLESTATIC LIVER DISEASE” (CUROME BIOSCIENCES CO., LTD., priority 2020, published 2024):

Legend:
fibrosis-related genes [1] = experiment: Real-time PCR of fibrosis-related genes in liver tissue, preventive β-lapachone in DDC mice (Example 2.3); type: in vivo; details: DDC-BL40 and DDC-BL80 vs DDC-vehicle, DDC 14 days
Method: DDC-induced cholestatic liver disease mouse animal models were prepared according to the method of Elisa Pose et al. by using 8-week-old C57BL/6 male mice (Samtako, Korea). Briefly, cholestatic liver disease was induced by feeding a standard rodent diet supplemented with 0.1% (w/w) DDC for 7 or 14 days. The 12-hour light and dark cycle was maintained and animals were allowed to free access to water. The standard rodent diet included medium wheat, wheat, corn, and corn gluten flour, and soybean oil (14% protein). All animal related procedures were reviewed and approved by the Institutional Animal Care and Use Committee of Korea Research Institute of Bioscience and Biotechnology (KRIBB), KRIBB-AEC-20165). To investigate the preventive effect of β-Lapachone (BL) on cholestatic liver disease, the mice were fed a diet with 0 (DDC-vehicle), 40 mg/kg (DDC-BL40) and 80 mg/kg (DDC-BL80) 3 days before DDC treatment (total 17 days) and, after 3 days, were fed a diet with DDC (total 14 days). After 14 days of DDC treatment, the mice were sacrificed and the liver was harvested including the portal vein (PV) and bile ducts of the mice, and the surrounding lesions were confirmed by H&E, and are shown in FIG. 1. The expression of the factors in the liver tissue obtained from the cholestatic liver disease mouse animal models of Example 2.1 was performed by a real-time polymerase chain reaction was performed according to the following procedure. Total RNA from liver samples was extracted using Tri-RNA Reagent (Favrogen BIOTECH CORP, Nong-Ke Rd, Taiwan) according to the procedure presented by Favrogen, and was reverse transcribed into cDNA by using PrimeScript™ RT reagent Kit with gDNA Eraser (TAKARA Korea Biomedical Inc, Seoul, 08506, Korea). Quantitative PCR was performed using TB Green™ Premix Ex Taq™ II (Tli RNaseH Plus), ROX plus (TAKARA Korea Biomedical Inc, Seoul, 08506, Korea) and QuantStudio 5 Real-Time PCR Instrument (Thermo Fisher Scientific, Waltham, MA, USA).

fibrosis-related genes [2] = experiment: mRNA levels of fibrosis-related genes in liver tissue (Example 3.2); type: in vivo, mice; details: β-lapachone with DDC in diet, 7 days; depending on the concentration
Method: After 8-week-old C57BL/6 male mice (Samtako, Korea) were divided into each group (=6), the mice were fed a diet with normal (vehicle), control (DDC), DDC+β-lapachone 20 mg/kg, DDC+β-lapachone 40 mg/kg, DDC+β-lapachone 80 mg/kg, DDC+β-lapachone 100 mg/kg, and positive control DDC+ursodeoxycholic acid 100 mg/kg, and DDC+obeticholic acid 30 mg/kg (total 7 days). After 7 days of treatment, the mice were sacrificed and then the blood was collected from the heart. Thereafter, the levels of alanine aminotransferase (ALT), aspartate aminotransferase (AST), alkaline phosphatase (ALP), and bilirubin, which are blood indexes, were analyzed, and shown in FIG. 4.
After the cholestatic liver disease mouse animal models in Example 3.1 were sacrificed and the liver tissue was harvested therefrom, the mRNA levels of fibrosis-related genes were measured by a method similar to the method in Example 2.3.
In the cholestatic liver disease mouse models, the bile ducts were damaged and fibrosis was induced, by DDC, and accordingly, the transcriptional levels of collagen type 1 alpha 1 (Co|1α1), transforming growth factor beta 1 (TGF-β1), and collagen type I alpha 2 (Co|1α2), which are important factors in the development of fibrosis, were investigated, and the results are shown in FIG. 5.

[3] = test system: LX-2 hepatic stellate cell line; experiment: Fibronectin and α-SMA protein expression in TGF-β1-treated LX-2 hepatic stellate cells (immunoblotting); type: cell-based; details: LX-2 cells, 1 ng/ml TGF-β1 + 0.5 or 1 μM β-lapachone, 24 hours
Method: Considering that inflammation and fibrosis of bile ducts cause cirrhosis in cholestatic liver disease, experiments were performed on the LX-2 hepatic stellate cell line model by using the method of Takaaki Higashi et al. (2017). The LX-2 cell line was subcultured in DMEM containing 10% FBS, 2 mM glutamine, 100 U penicillin, and 0.1 mg/ml streptomycin. The LX-2 cell line was added into a 6-well plate at a density of 16×10^4 cells/well, and cultured in DMEM containing 1 ng/ml TGF-β1, 1 ng/ml TGF-β1+0.5 μM β-lapachone or 1 ng/ml TGF-β1+1 μM β-lapachone for 24 hours. Thereafter, the protein expression levels of the fibrosis-related genes fibronectin and α-SMA of the obtained cells were measured by protein immunoblotting according to a conventional method known in the art.

macrophage line Raw264.7 = experiment: IL-1β and TNF-α release (ELISA) from LPS and ATP treated Raw264.7 macrophages; type: cell-based; details: Raw264.7, LPS 100 ng/ml, 0.2, 0.5, 1, 2 μM β-lapachone 24 hours, ATP 2.5 mM 30 minutes
Method: The macrophage line Raw264.7 (ATCC TIB-71, Manassas, VA, USA) was subcultured in DMEM supplemented with 10% FBS and 1% penicillin/streptomycin.
For inflammation induction, RAW264.7 cells were suspended in DMEM containing 2% FBS, inoculated in a 12-well plate to a cell number of 4×10^5/ml, and incubated in 5% CO2 incubator at 37° C. for 24 hours. With replacement with fresh media, the cells were treated with appropriate concentrations of a corresponding substance, LPS (100 ng/ml), and 0.2, 0.5, 1, and 2 μM β-lapachone, cultured for 24 hours, treated with ATP (2.5 mM), and then cultured for additional 30 minutes, and the supernatant was collected. The release of cytokines (IL-1β and TNF-α) of RaW264.7 macrophages was quantified using each cell-free supernatant-ELISA set (Invitrogen, Billerica, MA, USA) by Invitrogen according to the manufacture's instruction, and is shown in FIG. 14.

[4] = test system: peripheral blood mononuclear cells (PBMCs); experiment: IL-1β and IL-18 expression in LPS and ATP treated peripheral blood mononuclear cells; type: cell-based, mice; details: LPS 200 ng/mL and ATP, 0.5, 1, 2 μM β-lapachone, 4 hours
Method: Considering that inflammatory cytokines mediate the pathogenic mechanism of cholestatic liver disease, the peripheral blood mononuclear cell model was used by a modified method of Boyum et al. (1968). Peripheral blood mononuclear cells isolated from healthy 8-week-old C57BL/6 male mice (Samtako, Korea) were maintained by primary culture in RPMI-1640 medium containing 10% FBS, 2 mM glutamine, 100 U penicillin, and 0.1 mg/ml streptomycin. Stable peripheral blood mononuclear cells (PBMCs) were treated with LPS at 200 ng/mL and ATP and β-lapachone at 0, 0.5, 1, 2 μM in the medium and, after 4 hours, the expression levels of IL-1β and IL-18 were investigated, and the results are shown in FIG. 15.

SMILES: CC1(C)CCC2=C(O1)c1ccccc1C(=O)C2=O [β-lapachone]
- transcriptional level of Co|1α1 in liver (fibrosis-related genes [1]): significantly reduced
- transcriptional level of Co|4α1 in liver (fibrosis-related genes [1]): significantly reduced
- transcriptional level of TGF-β1 in liver (fibrosis-related genes [1]): significantly reduced
- transcriptional level of fibronectin in liver (fibrosis-related genes [1]): significantly reduced
- transcriptional level of α-SMA in liver (fibrosis-related genes [1]): significantly reduced
- transcriptional level of Co|1α1 in liver (fibrosis-related genes [2]): inhibited
- transcriptional level of Co|1α2 in liver (fibrosis-related genes [2]): inhibited
- transcriptional level of TGF-β1 in liver (fibrosis-related genes [2]): inhibited
- protein expression level of fibronectin increased by TGF-β1 [3]: reduced depending on the concentration
- protein expression level of α-SMA increased by TGF-β1 [3]: reduced depending on the concentration
- expression level of IL-1β protein increased by LPS and ATP (macrophage line Raw264.7): reduced depending on the concentration
- expression level of TNF-α protein increased by LPS and ATP (macrophage line Raw264.7): reduced depending on the concentration
- expression level of IL-1β increased by LPS and ATP [4]: reduced depending on the concentration
- expression level of IL-18 increased by LPS and ATP [4]: reduced depending on the concentration
